Laboratory results from patent publication EP0063525A1, “Dibenzazepine tetracyclic derivatives, process for their preparation and pharmaceutical compositions containing them” (CENTRE NATIONAL DE LA RECHERCHE SCIENTIFIQUE (CNRS), priority 1981, dated 1982).
In brackets after ≈: the same amount, converted by molar mass. Like-named read-outs stand apart in the source and are kept apart here.

Tests used:
[1] = system: chiens anesthésiés; assay: cardiovascular toxicity in the anaesthetised dog, slow perfusion; format: in vivo, Chien
Experimental: L'étude du composé 2 a été effectuée sur 7 chiens anesthésiés à des doses allant de 4 à 20 mg/kg en perfusion lente.

[2] = system: souris femelles; assay: acute toxicity in the mouse, intraperitoneal; format: in vivo; conditions: voie intrapéritonéale, dead mice of the group
Source text: (§1) Les produits ont été administrés par voie intrapéritonéale à des souris femelles dont le poids variait de 18 à 30 g.
(§2) Les animaux injectés ont été maintenus dans une salle thermostatée, nourris et abreuvés à volonté.
(§3) La mortalité a été relevée à 1 heure, 4 heures, 24 heures et 48 heures.

[3] = acute toxicity in the mouse, intraperitoneal; format: in vivo, Souris; conditions: mouse, in vivo, ip, voie intrapéritonéale; for LD50 at 48 h: souris femelles, read-out: DL 50; for mortality at 48 h: read-out: Mortalité %
Source text: as §1, §2, §3

[4] = system: Souris; assay: analgesic activity, phenylbenzoquinone writhing technique; format: in vivo
Experimental: Ce test consiste à rechercher une éventuelle protection vis-à-vis des crampes ou contorsions abdominales provoquées chez la Souris par injection intrapéritonéale de phénylbenzoquinone.
Les souris sont réparties au hasard par lots de 4 dans des cristallisoirs.
Le compose 2 a été injecté par voie intrapéritonéale, 30 minutes avant l'injection de la phénylbenzoquinone.
Les crampes abdominales sont comptées pour chaque souris pendant 30 minutes à partir de la quinzième minute qui suit l'injection de l'agent algogène.

[5] = system: Iléon de cobaye; assay: spasmolytic action, anti barium chloride effect; format: cell-based; conditions: BaCl2 6 x 10^-2 mg/ml
Experimental: (§4) Les essais ont été effectués sur l'Iléon de cobaye maintenu en survie dans une solution de Tyrode oxygénée et thermostabilisée à 37° C suivant le méthode de MAGNUS.
(§5) L'action spasmolytique du composé 2 a été étudiée en opposition avec les propriétés spasmogènes de l'acétylcholine, du chlorure de baryum, de l'histamine et de la sérotonine.
Ces essais ont été effectués sur douze préparations. Six ont été utilisées pour la recherche d'inhibition de la contraction ba- rytique dite curative, les six autres pour les essais dits "préventif baryum".
La concentration de BaCl2 utilisée comme agent contracturant est de 6 x 10^-2 mg/ml.

[6] = system: Iléon de cobaye; assay: spasmolytic action, anticholinergic effect (acetylcholine contraction); format: cell-based; conditions: acétylcholine 3 à 6 x 10^-5 mg/ml, six préparations; read-out: DE 50 (effet anticholinergique)
Experimental: as §4, §5
Ces essais ont été effectués sur six préparations. L'effet inhibiteur du composé 2 a été recherché à l'encontre des propriétés contracturantes de l'acétylcholine utilisée à la concentration de 3 à 6 x 10^-5 mg/ml pour une cuve de 30 ml.

[7] = system: Souris; assay: tetrabenazine hypothermia; format: in vivo
Experimental: (§6) Ce test permet de révéler également une activité antidépressive avec l'avantage d'une lecture plus rapide qu'avec la réserpine.
Les produits sont injectés 30 minutes avant l'administration de tétrabénazine.
Les températures sont relevées aux temps : 0, 30 minutes, 60 minutes, 90 minutes et 120 minutes.
(§7) Les souris sont réparties par lots de 5.
Les températures sont relevées avant l'injection de tétrabénazine, 30 minutes, 60 minutes, 90 minutes et 120 minutes après.
(§8) Le lot témoin comprend 20 souris.

[8] = system: Souris; assay: tetrabenazine ptosis; format: in vivo; conditions: for Ptosis 30 minutes / Ptosis 60 minutes / Ptosis 90 minutes / Ptosis 120 minutes: score 0-4 per eye
Experimental: as §6, §7
Le ptosis est noté avant l'injection de tétrabénazine, 30 minutes, 60 minutes, 90 minutes et 120 minutes après.
On a adopté la notation suivante : • - 0 : pour un oeil ouvert, • - 1 : pour un oeil fermé au quart, • - 2 : pour un oeil fermé à moitié, • - 3 : pour un oeil fermé aux trois-quarts, • - 4 : pour un oeil fermé complètement.
as §8

[9] = system: Souris; assay: antireserpine activity: reserpine hypothermia; format: in vivo; conditions: réserpine 5 mg/kg i.p. 17 h before
In short: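 Mice in groups of 4 given reserpine 5 mg/kg i.p.; 17 hours later rectal temperature taken by thermocouple and test substance or solvent given i.p. Temperature measured hourly for 4 hours. Reported as mean temperature changes at 1, 2, 3 and 4 hours, their 4-hour sum, and percent rise versus solvent controls.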

[10] = system: Iléon de cobaye; assay: spasmolytic action, antihistaminic effect; format: cell-based; conditions: histamine 0,5 à 3 x 10^-5 mg/ml, cinq préparations; read-out: DE 50 envers le spasme provoqué par l'histamine
Experimental: as §4, §5
Ces essais ont été pratiqués sur cinq préparations. L'histamine a été utilisée à la concentration de 0,5 à 3 x 10^-5 mg/ml.

[11] = system: rat; assay: medium-term toxicity in the rat, per os, 5 weeks; conditions: per os, 2, 10 et 50 mg/kg pendant 5 semaines
Experimental: Cette étude a eu pour but de rechercher les effets éventuels du composé 2 sur les différents paramètres biologiques hématologi -ques et histologiques du rat après traitement per os à raison de 2,10 et 50 mg/kg pendant 5 semaines.

[12] = 20 mg/kg/IP 30 min before phényl-benzoquinone 10 mg/kg/IP
[13] = 50 mg/kg/IP 30 min before phényl-benzoquinone 10 mg/kg/IP
[14] = product i.p. 5 mg/kg 30 min before tétrabénazine 32 mg/kg i.v.
[15] = product i.p. 200 mg/kg 30 min before tétrabénazine 32 mg/kg i.v.

SMILES: CN(C)CCCN1c2ccccc2CCc2ccccc21 [imipramine, reference compound]
- retour vers les valeurs de départ des paramètres enregistrés, dès l'arrêt de l'injection ([1]; chiens anesthésiés, perfusion lente): n'a pas été constatée

SMILES: CN(C)CCN1c2ccccc2C2ON=C(c3ccccc3)C2c2ccccc21 (stereo not drawn) [Composé 2, (β-diméthylaminoéthyl)-8 phényl-3 trihydro-3a,8, 12b (dibenzo [b,f]isoxazolo [4,5-d])azépine]
- Mortalité en 1 heure ([2]; 10 mg/kg): 0
- Mortalité en 48 h. ([2]; 10 mg/kg): 0
- Mortalité en 1 heure ([2]; 50 mg/kg): 0
- Mortalité en 48 h. ([2]; 50 mg/kg): 0
- Mortalité en 1 heure ([2]; 75 mg/kg): 0
- Mortalité en 48 h. ([2]; 75 mg/kg): 0
- Mortalité en 1 heure ([2]; 100 mg/kg): 3
- Mortalité en 48 h. ([2]; 100 mg/kg): 3
- Mortalité en 1 heure ([2]; 200 mg/kg): 4
- Mortalité en 48 h. ([2]; 200 mg/kg): 5
- LD50 at 48 h [3]: 95 mg/kg
- mortality at 48 h ([3]; 10 mg/kg): 0%
- mortality at 48 h ([3]; 50 mg/kg): 0%
- mortality at 48 h ([3]; 75 mg/kg): 0%
- mortality at 48 h ([3]; 100 mg/kg): 60%
- mortality at 48 h ([3]; 200 mg/kg): 100%
- % de protection [4, 12]: 70%
- Nombre de crampes en 30 minutes [4, 12]: 35
- % de protection [4, 13]: 100%
- Nombre de crampes en 30 minutes [4, 13]: 0
- action protectrice envers le syndrome douloureux à la phénylbenzoquinone ([4]; in vivo): action protectrice importante
- IC50 ([5]; curative, read-out: concentration for inhibition de 50% de l'effet spasmogène, essais curatifs): 1 µg/mL (≈ 2.61 µM)
- IC50 ([5]; Cavia porcellus, preventive, read-out: concentration for inhibition de 50% de l'effet spasmogène, essais préventifs): 0.5 µg/mL (≈ 1.3 µM)
- EC50 [6]: 0.5 µg/mL (≈ 1.3 µM)
- inhibition in vivo at 5 mg/kg ([7]; ip, 2 h, hypothermie, product i.p. 5 mg/kg 30 min before tétrabénazine 32 mg/kg i.v., read-out: % de protection): 3%
- Température après tétrabénazine 30 minutes [7, 14]: -3,2
- Température après tétrabénazine 60 minutes [7, 14]: -2,6
- Température après tétrabénazine 90 minutes [7, 14]: -1,3
- Température après tétrabénazine 120 minutes [7, 14]: -1,3
- Température après tétrabénazine Total [7, 14]: -8,3
- inhibition in vivo at 5 mg/kg ([8]; ip, 2 h, ptosis, product i.p. 5 mg/kg 30 min before tétrabénazine 32 mg/kg i.v., read-out: % de protection): 5%
- Ptosis Total [8, 14]: 28,6
- Ptosis 30 minutes [8, 14]: 4,8
- Ptosis 60 minutes [8, 14]: 7,8
- Ptosis 90 minutes [8, 14]: 8
- Ptosis 120 minutes [8, 14]: 8
- change in vivo at 5 mg/kg ([9]; ip, 4 h, product i.p. 5 mg/kg, read-out: % d'augmentation par rapport aux témoins): 155%
- variation de température T= 2h ([9]; product i.p. 5 mg/kg): +1,6
- variation de température T=3h ([9]; product i.p. 5 mg/kg): +0,7
- variation de température T=4h ([9]; product i.p. 5 mg/kg): +1,4
- toxicité sur le système cardiovasculaire comparativement à l'imipramine ([1]; in vivo, 20 mg/kg): plus faible toxicité
- EC50 [10]: ~0.05 µg/mL (≈ 0.13 µM)
- paramètres biologiques hématologiques et histologiques du rat [11]: aucune modification

SMILES: CN(C)CCN1c2ccccc2-c2c(-c3ccccc3)nn(-c3ccccc3)c2-c2ccccc21 [compound 13]
- Mortalité en 1 heure ([2]; 50 mg/kg): 0
- Mortalité en 48 h. ([2]; 50 mg/kg): 0
- Mortalité en 1 heure ([2]; 100 mg/kg): 0
- Mortalité en 48 h. ([2]; 100 mg/kg): 0
- Mortalité en 1 heure ([2]; 250 mg/kg): 0
- Mortalité en 48 h. ([2]; 250 mg/kg): 0
- Mortalité en 1 heure ([2]; 400 mg/kg): 3
- Mortalité en 48 heures ([2]; 400 mg/kg): 3
- Mortalité en 1 heure ([2]; 750 mg/kg): 2
- Mortalité en 48 h. ([2]; 750 mg/kg): 5
- LD50 at 48 h [3]: 350 mg/kg
- mortality at 48 h ([3]; 50 mg/kg): 0%
- mortality at 48 h ([3]; 100 mg/kg): 0%
- mortality at 48 h ([3]; 250 mg/kg): 0%
- mortality at 48 h ([3]; 400 mg/kg): 60%
- mortality at 48 h ([3]; 750 mg/kg): 100%
- inhibition in vivo at 200 mg/kg ([7]; ip, 2 h, hypothermie, product i.p. 200 mg/kg 30 min before tétrabénazine 32 mg/kg i.v., read-out: % de protection): 15%
- Température après tétrabénazine 30 minutes [7, 15]: -3,4
- Température après tétrabénazine 60 minutes [7, 15]: -1,9
- Température après tétrabénazine 90 minutes [7, 15]: -1,1
- Température après tétrabénazine 120 minutes [7, 15]: -0,9
- Température après tétrabénazine Total [7, 15]: -7,3
- inhibition in vivo at 200 mg/kg ([8]; ip, 2 h, ptosis, product i.p. 200 mg/kg 30 min before tétrabénazine 32 mg/kg i.v., read-out: % de protection): 14%
- Ptosis Total [8, 15]: 25,9
- Ptosis 30 minutes [8, 15]: 4
- Ptosis 60 minutes [8, 15]: 6,8
- Ptosis 90 minutes [8, 15]: 7,6
- Ptosis 120 minutes [8, 15]: 7,5
- change in vivo at 200 mg/kg ([9]; ip, 4 h, product i.p. 200 mg/kg, read-out: % d'augmentation par rapport aux témoins): 70%
- variation de température T=1h ([9]; product i.p. 200 mg/kg): +1,9
- variation de température T= 2h ([9]; product i.p. 200 mg/kg): +1
- variation de température T=3h ([9]; product i.p. 200 mg/kg): +0,5
- variation de température T=4h ([9]; product i.p. 200 mg/kg): 0
